Laboratory results reported in ChEMBL document CHEMBL4507285, “Data for DCP probe MRL-SYKi” (2021).

Legend:
[1] = molecular target: Glycogen synthase kinase-3 alpha (Homo sapiens) (UniProt P49840); conditions: Compound concentration 100.0 nM
[2] = system: Epidermal growth factor receptor (Homo sapiens), P00533 [UNDEFINED MUTATION]; conditions: Compound concentration 100.0 nM
[3] = molecular target: cAMP-dependent protein kinase catalytic subunit alpha (Homo sapiens) (UniProt P17612); conditions: Compound concentration 100.0 nM
[4] = molecular target: Protein-tyrosine kinase 6 (Homo sapiens) (UniProt Q13882); conditions: Compound concentration 100.0 nM
[5] = molecular target: Calcium/calmodulin-dependent protein kinase type II subunit alpha (Homo sapiens) (UniProt Q9UQM7); conditions: Compound concentration 100.0 nM
[6] = molecular target: Serine/threonine-protein kinase Sgk2 (Homo sapiens) (UniProt Q9HBY8); conditions: Compound concentration 100.0 nM
[7] = molecular target: Serine/threonine-protein kinase RIO2 (Homo sapiens) (UniProt Q9BVS4); conditions: Compound concentration 100.0 nM
[8] = system: Tyrosine-protein kinase ABL1 (Homo sapiens), P00519 [T315I]; conditions: Compound concentration 100.0 nM
[9] = molecular target: Ribosomal protein S6 kinase alpha-6 (Homo sapiens) (UniProt Q9UK32); conditions: Compound concentration 100.0 nM
[10] = molecular target: Mitogen-activated protein kinase 1 (Homo sapiens) (UniProt P28482); conditions: Compound concentration 100.0 nM
[11] = molecular target: 3-phosphoinositide-dependent protein kinase 1 (Homo sapiens) (UniProt O15530); conditions: Compound concentration 100.0 nM
[12] = molecular target: Serine/threonine-protein kinase 17B (Homo sapiens) (UniProt O94768); conditions: Compound concentration 100.0 nM
[13] = molecular target: Serine/threonine-protein kinase/endoribonuclease IRE1 (Homo sapiens) (UniProt O75460); conditions: Compound concentration 100.0 nM
[14] = system: Phosphatidylinositol 4,5-bisphosphate 3-kinase catalytic subunit alpha isoform (Homo sapiens), P42336 [I800L]; conditions: Compound concentration 100.0 nM
Chain of Phosphatidylinositol 4,5-bisphosphate 3-kinase catalytic subunit alpha isoform (Homo sapiens), P42336 [I800L] (P42336 whole entry I800L, canonical isoform): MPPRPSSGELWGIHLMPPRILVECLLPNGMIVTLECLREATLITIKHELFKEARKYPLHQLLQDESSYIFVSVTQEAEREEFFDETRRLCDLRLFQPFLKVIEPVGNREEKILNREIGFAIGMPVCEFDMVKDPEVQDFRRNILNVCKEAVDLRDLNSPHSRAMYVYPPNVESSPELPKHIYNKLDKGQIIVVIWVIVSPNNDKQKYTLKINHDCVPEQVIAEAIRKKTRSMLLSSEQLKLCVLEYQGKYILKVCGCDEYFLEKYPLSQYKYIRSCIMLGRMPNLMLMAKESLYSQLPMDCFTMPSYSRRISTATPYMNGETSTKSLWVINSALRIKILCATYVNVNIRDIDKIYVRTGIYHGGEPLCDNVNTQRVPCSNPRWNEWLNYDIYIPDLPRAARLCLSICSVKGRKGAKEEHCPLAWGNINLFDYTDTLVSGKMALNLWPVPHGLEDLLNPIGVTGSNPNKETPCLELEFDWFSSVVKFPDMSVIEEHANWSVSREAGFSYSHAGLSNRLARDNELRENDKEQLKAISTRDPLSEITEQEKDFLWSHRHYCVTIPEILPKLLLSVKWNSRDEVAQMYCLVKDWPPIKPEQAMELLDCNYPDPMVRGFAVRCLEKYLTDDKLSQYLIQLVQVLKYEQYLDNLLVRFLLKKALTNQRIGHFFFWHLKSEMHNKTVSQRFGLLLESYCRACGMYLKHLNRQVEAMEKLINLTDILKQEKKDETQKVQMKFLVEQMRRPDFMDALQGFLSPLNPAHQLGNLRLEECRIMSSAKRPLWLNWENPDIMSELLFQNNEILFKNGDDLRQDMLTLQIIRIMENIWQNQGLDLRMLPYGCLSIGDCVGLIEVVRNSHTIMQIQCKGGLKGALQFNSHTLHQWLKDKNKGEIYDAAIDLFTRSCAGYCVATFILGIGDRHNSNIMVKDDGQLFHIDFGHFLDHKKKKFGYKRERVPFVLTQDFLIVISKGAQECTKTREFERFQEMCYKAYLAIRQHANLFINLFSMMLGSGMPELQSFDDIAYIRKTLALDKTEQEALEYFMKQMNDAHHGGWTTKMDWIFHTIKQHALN

[15] = molecular target: Serine/threonine-protein kinase ULK2 (Homo sapiens) (UniProt Q8IYT8); conditions: Compound concentration 100.0 nM
[16] = molecular target: Mitogen-activated protein kinase 9 (Homo sapiens) (UniProt P45984); conditions: Compound concentration 100.0 nM
[17] = molecular target: Wee1-like protein kinase 2 (Homo sapiens) (UniProt P0C1S8); conditions: Compound concentration 100.0 nM
[18] = molecular target: Serine/threonine-protein kinase LATS2 (Homo sapiens) (UniProt Q9NRM7); conditions: Compound concentration 100.0 nM
[19] = molecular target: Tyrosine-protein kinase BTK (Homo sapiens) (UniProt Q06187); conditions: Compound concentration 100.0 nM
[20] = molecular target: Activin receptor type-2B (Homo sapiens) (UniProt Q13705); conditions: Compound concentration 100.0 nM
[21] = molecular target: Receptor-interacting serine/threonine-protein kinase 1 (Homo sapiens) (UniProt Q13546); conditions: Compound concentration 100.0 nM
[22] = molecular target: Fibroblast growth factor receptor 1 (Homo sapiens) (UniProt P11362); conditions: Compound concentration 100.0 nM
[23] = molecular target: Cyclin-dependent kinase 8 (Homo sapiens) (UniProt P49336); conditions: Compound concentration 100.0 nM
[24] = molecular target: Casein kinase I isoform alpha (Homo sapiens) (UniProt P48729); conditions: Compound concentration 100.0 nM
[25] = molecular target: Serine/threonine-protein kinase NIM1 (Homo sapiens) (UniProt Q8IY84); conditions: Compound concentration 100.0 nM
Chain of Serine/threonine-protein kinase NIM1 (Homo sapiens) (Q8IY84 whole entry): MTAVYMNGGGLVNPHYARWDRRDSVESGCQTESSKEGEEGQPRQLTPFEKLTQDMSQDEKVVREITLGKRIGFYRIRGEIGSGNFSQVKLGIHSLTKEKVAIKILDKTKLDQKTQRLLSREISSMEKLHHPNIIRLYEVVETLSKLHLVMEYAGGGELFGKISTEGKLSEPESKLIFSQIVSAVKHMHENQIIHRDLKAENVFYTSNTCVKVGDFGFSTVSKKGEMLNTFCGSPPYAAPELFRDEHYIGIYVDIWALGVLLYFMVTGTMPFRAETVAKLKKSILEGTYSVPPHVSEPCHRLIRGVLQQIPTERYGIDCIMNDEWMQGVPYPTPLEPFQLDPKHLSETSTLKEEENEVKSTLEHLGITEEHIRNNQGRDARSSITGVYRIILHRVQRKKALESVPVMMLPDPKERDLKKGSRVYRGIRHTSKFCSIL

[26] = molecular target: Cyclin-dependent kinase-like 1 (Homo sapiens) (UniProt Q00532); conditions: Compound concentration 100.0 nM
[27] = molecular target: Calcium/calmodulin-dependent protein kinase kinase 1 (Homo sapiens) (UniProt Q8N5S9); conditions: Compound concentration 100.0 nM
Chain of Calcium/calmodulin-dependent protein kinase kinase 1 (Homo sapiens) (Q8N5S9 whole entry, looked up): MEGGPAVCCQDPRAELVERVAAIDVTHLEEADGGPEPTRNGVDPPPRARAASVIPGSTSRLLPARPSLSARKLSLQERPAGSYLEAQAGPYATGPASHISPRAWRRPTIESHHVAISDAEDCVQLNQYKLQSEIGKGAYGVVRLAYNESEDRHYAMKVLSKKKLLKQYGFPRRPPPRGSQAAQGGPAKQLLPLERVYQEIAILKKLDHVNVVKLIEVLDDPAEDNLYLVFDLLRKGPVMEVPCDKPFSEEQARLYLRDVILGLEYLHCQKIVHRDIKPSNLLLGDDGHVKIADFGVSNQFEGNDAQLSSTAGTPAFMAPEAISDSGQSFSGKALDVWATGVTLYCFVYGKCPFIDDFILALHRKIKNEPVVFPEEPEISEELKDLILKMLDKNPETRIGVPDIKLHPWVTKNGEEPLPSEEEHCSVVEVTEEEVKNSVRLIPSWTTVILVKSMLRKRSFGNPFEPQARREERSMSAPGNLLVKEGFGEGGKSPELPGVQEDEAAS

[28] = molecular target: Serine/threonine-protein kinase Nek6 (Homo sapiens) (UniProt Q9HC98); conditions: Compound concentration 100.0 nM
[29] = molecular target: Misshapen-like kinase 1 (Homo sapiens) (UniProt Q8N4C8); conditions: Compound concentration 100.0 nM
[30] = molecular target: Serine/threonine-protein kinase BRSK1 (Homo sapiens) (UniProt Q8TDC3); conditions: Compound concentration 100.0 nM
[31] = molecular target: Serine/threonine-protein kinase DCLK1 (Homo sapiens) (UniProt O15075); conditions: Compound concentration 100.0 nM
Chain of Serine/threonine-protein kinase DCLK1 (Homo sapiens) (O15075 whole entry): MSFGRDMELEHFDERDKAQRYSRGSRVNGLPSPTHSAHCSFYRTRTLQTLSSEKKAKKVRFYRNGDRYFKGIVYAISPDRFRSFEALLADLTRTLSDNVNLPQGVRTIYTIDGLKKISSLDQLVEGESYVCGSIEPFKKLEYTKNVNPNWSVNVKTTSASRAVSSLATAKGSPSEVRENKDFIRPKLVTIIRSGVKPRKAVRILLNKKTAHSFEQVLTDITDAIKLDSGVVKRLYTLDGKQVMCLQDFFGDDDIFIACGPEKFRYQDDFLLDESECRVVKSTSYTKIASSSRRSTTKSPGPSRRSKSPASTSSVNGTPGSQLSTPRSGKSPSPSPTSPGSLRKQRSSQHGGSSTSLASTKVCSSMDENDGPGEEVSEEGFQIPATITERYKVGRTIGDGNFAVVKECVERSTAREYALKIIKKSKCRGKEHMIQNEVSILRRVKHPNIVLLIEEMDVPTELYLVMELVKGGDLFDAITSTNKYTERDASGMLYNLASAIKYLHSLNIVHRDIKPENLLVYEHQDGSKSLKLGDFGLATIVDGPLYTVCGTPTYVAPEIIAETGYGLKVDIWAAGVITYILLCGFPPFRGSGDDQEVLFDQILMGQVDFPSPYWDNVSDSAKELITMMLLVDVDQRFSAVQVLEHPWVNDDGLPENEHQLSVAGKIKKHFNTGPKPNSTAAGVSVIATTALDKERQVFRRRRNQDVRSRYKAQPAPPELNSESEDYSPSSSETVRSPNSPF

[32] = molecular target: Serine/threonine-protein kinase PknB (Mycobacterium tuberculosis) (UniProt P9WI81); conditions: Compound concentration 100.0 nM
[33] = molecular target: Platelet-derived growth factor receptor alpha (Homo sapiens) (UniProt P16234); conditions: Compound concentration 100.0 nM
[34] = molecular target: Alpha-1D adrenergic receptor (Homo sapiens) (UniProt P25100); conditions: Compound concentration 10.0 uM
[35] = system: Receptor-type tyrosine-protein kinase FLT3 (Homo sapiens), P36888 [K663Q]; conditions: Compound concentration 100.0 nM
[36] = molecular target: Cyclin-dependent kinase 11B (Homo sapiens) (UniProt P21127); conditions: Compound concentration 100.0 nM
[37] = molecular target: TGF-beta receptor type-2 (Homo sapiens) (UniProt P37173); conditions: Compound concentration 100.0 nM
Chain of TGF-beta receptor type-2 (Homo sapiens) (P37173 whole entry): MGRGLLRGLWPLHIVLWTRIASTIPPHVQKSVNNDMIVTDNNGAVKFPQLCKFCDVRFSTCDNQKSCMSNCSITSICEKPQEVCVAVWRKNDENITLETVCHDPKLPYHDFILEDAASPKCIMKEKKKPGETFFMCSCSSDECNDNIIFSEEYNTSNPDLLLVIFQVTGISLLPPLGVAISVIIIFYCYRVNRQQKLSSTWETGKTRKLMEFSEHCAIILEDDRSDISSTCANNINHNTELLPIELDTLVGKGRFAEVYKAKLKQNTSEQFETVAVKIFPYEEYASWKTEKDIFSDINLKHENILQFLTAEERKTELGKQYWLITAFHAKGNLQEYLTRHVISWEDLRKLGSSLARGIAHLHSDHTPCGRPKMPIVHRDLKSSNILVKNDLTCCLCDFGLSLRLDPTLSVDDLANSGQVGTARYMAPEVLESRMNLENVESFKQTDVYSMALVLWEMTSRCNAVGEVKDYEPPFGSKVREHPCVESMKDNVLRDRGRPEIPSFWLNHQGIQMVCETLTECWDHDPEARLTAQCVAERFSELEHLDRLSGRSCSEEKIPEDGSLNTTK

[38] = molecular target: Serine/threonine-protein kinase ICK (Homo sapiens) (UniProt Q9UPZ9); conditions: Compound concentration 100.0 nM
[39] = molecular target: Fibroblast growth factor receptor 3 (Homo sapiens) (UniProt P22607); conditions: Compound concentration 100.0 nM
[40] = molecular target: Interleukin-1 receptor-associated kinase 1 (Homo sapiens) (UniProt P51617); conditions: Compound concentration 100.0 nM
[41] = molecular target: cAMP-dependent protein kinase catalytic subunit beta (Homo sapiens) (UniProt P22694); conditions: Compound concentration 100.0 nM
[42] = molecular target: Receptor-interacting serine/threonine-protein kinase 2 (Homo sapiens) (UniProt O43353); conditions: Compound concentration 100.0 nM
[43] = system: Receptor-type tyrosine-protein kinase FLT3 (Homo sapiens), P36888 [UNDEFINED MUTATION]; conditions: Compound concentration 100.0 nM
[44] = molecular target: Serine/threonine-protein kinase PAK 5 (Homo sapiens) (UniProt Q9P286); conditions: Compound concentration 100.0 nM
[45] = molecular target: Tyrosine-protein kinase Fgr (Homo sapiens, UniProt P09769); conditions: Compound concentration 100.0 nM

Chain of Epidermal growth factor receptor (Homo sapiens), P00533 [UNDEFINED MUTATION] (P00533 whole entry, looked up, change not shown): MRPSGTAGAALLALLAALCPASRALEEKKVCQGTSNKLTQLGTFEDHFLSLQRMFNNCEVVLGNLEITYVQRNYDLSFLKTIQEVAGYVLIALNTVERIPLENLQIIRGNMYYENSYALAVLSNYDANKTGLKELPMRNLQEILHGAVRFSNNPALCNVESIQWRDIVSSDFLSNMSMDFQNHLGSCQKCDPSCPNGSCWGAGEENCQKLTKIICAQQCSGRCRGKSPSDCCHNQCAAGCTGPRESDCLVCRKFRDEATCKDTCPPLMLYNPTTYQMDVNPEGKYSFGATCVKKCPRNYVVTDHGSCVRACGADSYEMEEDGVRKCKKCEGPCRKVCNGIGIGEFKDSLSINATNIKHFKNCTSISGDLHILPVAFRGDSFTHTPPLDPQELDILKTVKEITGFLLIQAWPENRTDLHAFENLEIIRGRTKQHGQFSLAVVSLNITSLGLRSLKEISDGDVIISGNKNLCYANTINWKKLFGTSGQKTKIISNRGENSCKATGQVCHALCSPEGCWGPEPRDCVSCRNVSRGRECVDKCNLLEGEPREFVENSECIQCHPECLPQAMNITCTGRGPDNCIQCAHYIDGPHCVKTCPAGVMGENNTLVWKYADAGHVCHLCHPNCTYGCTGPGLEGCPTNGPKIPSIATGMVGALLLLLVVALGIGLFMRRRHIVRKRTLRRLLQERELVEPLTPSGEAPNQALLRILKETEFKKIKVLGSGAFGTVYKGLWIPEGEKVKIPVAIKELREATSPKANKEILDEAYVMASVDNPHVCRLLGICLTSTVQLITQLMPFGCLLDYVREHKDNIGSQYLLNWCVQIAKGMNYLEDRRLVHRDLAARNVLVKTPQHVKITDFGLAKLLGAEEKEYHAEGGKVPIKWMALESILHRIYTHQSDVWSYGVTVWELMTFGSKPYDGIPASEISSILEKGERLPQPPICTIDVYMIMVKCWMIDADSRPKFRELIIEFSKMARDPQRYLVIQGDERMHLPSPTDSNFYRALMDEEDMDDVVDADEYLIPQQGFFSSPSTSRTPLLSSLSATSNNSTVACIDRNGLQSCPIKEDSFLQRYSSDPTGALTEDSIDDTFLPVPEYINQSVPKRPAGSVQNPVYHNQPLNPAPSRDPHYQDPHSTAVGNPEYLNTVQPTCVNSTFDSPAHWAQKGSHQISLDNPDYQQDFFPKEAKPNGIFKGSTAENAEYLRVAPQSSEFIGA
Chain of Glycogen synthase kinase-3 alpha (Homo sapiens) (P49840 2-483 limits assumed): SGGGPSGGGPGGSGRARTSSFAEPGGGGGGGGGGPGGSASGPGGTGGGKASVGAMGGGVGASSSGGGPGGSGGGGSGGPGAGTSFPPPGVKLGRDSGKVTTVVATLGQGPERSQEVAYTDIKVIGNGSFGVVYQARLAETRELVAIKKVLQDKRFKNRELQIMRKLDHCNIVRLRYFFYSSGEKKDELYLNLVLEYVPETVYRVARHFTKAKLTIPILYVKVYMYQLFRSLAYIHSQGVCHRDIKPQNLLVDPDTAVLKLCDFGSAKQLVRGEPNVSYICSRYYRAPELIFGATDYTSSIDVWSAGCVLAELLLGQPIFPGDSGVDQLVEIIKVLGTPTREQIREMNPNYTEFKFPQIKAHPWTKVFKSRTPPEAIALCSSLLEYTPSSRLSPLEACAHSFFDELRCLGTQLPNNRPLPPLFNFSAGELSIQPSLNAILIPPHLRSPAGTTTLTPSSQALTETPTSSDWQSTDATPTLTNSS

Structure (SMILES): Cc1ccc(-c2cnc([C@@]3(O)CC[C@H](C(=O)O)C(C)(C)C3)s2)cc1Nc1cccc(C(F)(F)F)n1 [MRL-SYKi-NC]
- residual activity [1]: 86.8%
- residual activity [2]: 100%
- residual activity [3]: 100%
- residual activity [4]: 100%
- residual activity [5]: 90.8%
- residual activity [6]: 57.3%
- residual activity [7]: 100%
- residual activity [8]: 100%
- residual activity [9]: 100%
- residual activity [10]: 100%
- residual activity [11]: 95.5%
- residual activity [12]: 94.6%
- residual activity [13]: 68.6%
- residual activity [14]: 76.7%
- residual activity [15]: 76%
- residual activity [16]: 45.3%
- residual activity [17]: 89.5%
- residual activity [18]: 90.6%
- residual activity [19]: 86.1%
- residual activity [20]: 100%
- residual activity [21]: 95.9%
- residual activity [22]: 92.4%
- residual activity [23]: 78.7%
- residual activity [24]: 94%
- residual activity [25]: 100%
- residual activity [26]: 75.6%
- residual activity [27]: 84.1%
- residual activity [28]: 89.7%
- residual activity [29]: 100%
- residual activity [30]: 100%
- residual activity [31]: 91.3%
- residual activity [32]: 86.7%
- residual activity [33]: 92.6%
- inhibition [34]: -2.32%
- residual activity [35]: 100%
- residual activity [36]: 95.4%
- residual activity [37]: 100%
- residual activity [38]: 91.7%
- residual activity [39]: 100%
- residual activity [40]: 49.8%
- residual activity [41]: 71.5%
- residual activity [42]: 96.8%
- residual activity [43]: 97.5%
- residual activity [44]: 96%
- residual activity [45]: 100%

Structure (SMILES): Cc1cc(Nc2nccc(C)n2)cc(-c2cnc([C@@]3(O)CC[C@H](C(=O)O)C(C)(C)C3)s2)c1 [MRL-SYKi]
- residual activity [1]: 100%
- residual activity [2]: 74%
- residual activity [3]: 100%
- residual activity [4]: 100%
- residual activity [5]: 100%
- residual activity [6]: 100%
- residual activity [7]: 83.9%
- residual activity [8]: 100%
- residual activity [9]: 77.2%
- residual activity [10]: 100%
- residual activity [11]: 86.5%
- residual activity [12]: 100%
- residual activity [13]: 90.2%
- residual activity [14]: 95.1%
- residual activity [15]: 100%
- residual activity [16]: 100%
- residual activity [17]: 100%
- residual activity [18]: 100%
- residual activity [19]: 81.5%
- residual activity [20]: 82.8%
- residual activity [21]: 87.1%
- residual activity [22]: 82%
- residual activity [23]: 100%
- residual activity [24]: 61.6%
- residual activity [25]: 100%
- residual activity [26]: 78.8%
- residual activity [27]: 66.6%
- residual activity [28]: 100%
- residual activity [29]: 80.7%
- residual activity [30]: 100%
- residual activity [31]: 64.1%
- residual activity [32]: 100%
- residual activity [33]: 100%
- inhibition [34]: -4.92%
- residual activity [35]: 82.1%
- residual activity [36]: 93.3%
- residual activity [37]: 49.5%
- residual activity [38]: 65.4%
- residual activity [39]: 88.2%
- residual activity [40]: 80.7%
- residual activity [41]: 100%
- residual activity [42]: 83.8%
- residual activity [43]: 59.1%
- residual activity [44]: 100%
- residual activity [45]: 100%
